Data set [1] relates to SH-SY5Y. Put plainly: Induction of GSK3beta degradation in human SH-SY5Y cells assessed as maximum degradation at 1 uM measured after 9 hrs by western blot assay. In kind it is cell-based. For orientation: A western blot detects proteins with antibodies after separation by electrophoresis.
For data set [2], the system named is SH-SY5Y. Put plainly: Effect on tau protein expression in human SH-SY5Y cells assessed as reduction on phosphorylated tau Ser396 residue level at 62.5 to 500 nM pretreated for 2 hrs followed by Abeta42 coincubation for 72 hrs by Westernblot analysis. In kind it is functional, cell-based. As to conditions: dose 62.5-500 nM, time 74.0 hrs.
For data set [3], the target named is Protein cereblon/Glycogen synthase kinase-3 beta (Homo sapiens, UniProt P49841+Q96SW2). Put plainly: Protac activity at CRBN/GSK3beta in human SH-SY5Y cells assessed as induction of GSK3beta degradation measured after 24 hrs. The class given is cell-based.
Data set [4] has as its system SH-SY5Y. Kind of data set: Induction of apoptosis in human SH-SY5Y cells assessed as early apoptotic cells at 62.5 nM preincubated for 2 hrs followed by coincubation with Abeta42 and measured after 72 hrs by Annexin V-FITC/propidium iodide staining based flow cytometry (Rvb=1%). The class given is functional. Conditions: time 74 hrs. A general note: Flow cytometry measures light scatter and fluorescence of single cells or particles in a stream.

Another data set concerns the target hERG (KCNH2) (Homo sapiens, UniProt Q12809). Put plainly: Inhibition of hERG expressed in CHO cells at 40 uM by whole cell patch clamp assay. The class given is cell-based. As to conditions: CHO cells that express hERG. (In general: hERG is a cardiac potassium channel; its block is linked to QT prolongation.)
Data set [5] has as its system Rattus norvegicus. Put plainly: Antialzheimer activity against hippocampal tissue of okadaic acid induced Sprague-Dawley rat assessed as reduction on GSK3alpha protein level at 200 to 600 uM, iv by western blot assay. In kind it is functional, organism-based. Conditions: Hippocampus, dose 200-600 µM.
Data set [6] concerns SH-SY5Y. Put plainly: Induction of apoptosis in human SH-SY5Y cells assessed as early apoptotic cells at 125 nM preincubated for 2 hrs followed by coincubation with Abeta42 and measured after 72 hrs by Annexin V-FITC/propidium iodide staining based flow cytometry (Rvb=1%). The class given is functional. As to conditions: time 74 hrs.
Data set [7] has as its system Rattus norvegicus. Kind of data set: Antialzheimer activity against hippocampal tissue of okadaic acid induced Sprague-Dawley rat assessed as reduction on GSK3beta protein level at 200 to 600 uM, iv by western blot assay. The class given is functional, organism-based. Conditions: Hippocampus, dose 200-600 µM.
For data set [8], the system named is SH-SY5Y. Put plainly: Effect on tau protein expression in human SH-SY5Y cells assessed as reduction on phosphorylated tau Ser404 residue level at 62.5 to 500 nM pretreated for 2 hrs followed by Abeta42 coincubation for 72 hrs by Westernblot analysis. The class given is functional, cell-based. Conditions: dose 62.5-500 nM, time 74.0 hrs.
In data set [9] the test system is SH-SY5Y. Kind of data set: Induction of apoptosis in human SH-SY5Y cells assessed as live cells at 125 nM preincubated for 2 hrs followed by coincubation with Abeta42 and measured after 72 hrs by Annexin V-FITC/propidium iodide staining based flow cytometry (Rvb=94.8%). The class given is functional. Conditions: time 74 hrs.
The target in data set [10] is Glycogen synthase kinase-3 alpha (Homo sapiens) (UniProt P49840). Put plainly: Induction of GSK3alpha degradation in human SH-SY5Y cells assessed as maximum degradation at 1 uM measured after 9 hrs by western blot assay. In kind it is cell-based.
In data set [11] the test system is SH-SY5Y. Kind of data set: Cytotoxicity against human SH-SY5Y cells assessed as cell viability upto 100 uM measured after 72 hrs by CCK8 assay. In kind it is functional, cell-based. As to conditions: dose microM <=100, time 72.0 hrs.
Data set [12] concerns the target Protein cereblon/Glycogen synthase kinase-3 alpha (Homo sapiens, UniProt P49840+Q96SW2). Put plainly: Protac activity at CRBN/GSK3alpha in human SH-SY5Y cells assessed as GSK3alpha degradation at 1 uM pretreated with pomalidomide for 2 hrs followed by compound addition and measured after 24 hrs. The class given is cell-based.
In data set [13] the test system is Rattus norvegicus. Put plainly: Antialzheimer activity against hippocampal tissue of okadaic acid induced Sprague-Dawley rat assessed as reduction on tau protein level at 200 to 600 uM, iv by immunohistochemical staining based analysis. The class given is functional, organism-based. As to conditions: Hippocampus, dose 200-600 µM.
Data set [14] is described as follows: Downregulation of GSK3alpha expression in human SH-SY5Y cells accessed as fold change in GSK3alpha expression at 1 uM measured after 4 hrs by proteomic analysis. In kind it is functional.
The subject of data set [15] is SH-SY5Y. Put plainly: Induction of apoptosis in human SH-SY5Y cells assessed as live cells at 250 nM preincubated for 2 hrs followed by coincubation with Abeta42 and measured after 72 hrs by Annexin V-FITC/propidium iodide staining based flow cytometry (Rvb=94.8%). In kind it is functional. As to conditions: time 74 hrs.

The source made the active and inactive calls. No cut-off for these calls is given here.

hERG (KCNH2), sequence (Q12809 whole entry): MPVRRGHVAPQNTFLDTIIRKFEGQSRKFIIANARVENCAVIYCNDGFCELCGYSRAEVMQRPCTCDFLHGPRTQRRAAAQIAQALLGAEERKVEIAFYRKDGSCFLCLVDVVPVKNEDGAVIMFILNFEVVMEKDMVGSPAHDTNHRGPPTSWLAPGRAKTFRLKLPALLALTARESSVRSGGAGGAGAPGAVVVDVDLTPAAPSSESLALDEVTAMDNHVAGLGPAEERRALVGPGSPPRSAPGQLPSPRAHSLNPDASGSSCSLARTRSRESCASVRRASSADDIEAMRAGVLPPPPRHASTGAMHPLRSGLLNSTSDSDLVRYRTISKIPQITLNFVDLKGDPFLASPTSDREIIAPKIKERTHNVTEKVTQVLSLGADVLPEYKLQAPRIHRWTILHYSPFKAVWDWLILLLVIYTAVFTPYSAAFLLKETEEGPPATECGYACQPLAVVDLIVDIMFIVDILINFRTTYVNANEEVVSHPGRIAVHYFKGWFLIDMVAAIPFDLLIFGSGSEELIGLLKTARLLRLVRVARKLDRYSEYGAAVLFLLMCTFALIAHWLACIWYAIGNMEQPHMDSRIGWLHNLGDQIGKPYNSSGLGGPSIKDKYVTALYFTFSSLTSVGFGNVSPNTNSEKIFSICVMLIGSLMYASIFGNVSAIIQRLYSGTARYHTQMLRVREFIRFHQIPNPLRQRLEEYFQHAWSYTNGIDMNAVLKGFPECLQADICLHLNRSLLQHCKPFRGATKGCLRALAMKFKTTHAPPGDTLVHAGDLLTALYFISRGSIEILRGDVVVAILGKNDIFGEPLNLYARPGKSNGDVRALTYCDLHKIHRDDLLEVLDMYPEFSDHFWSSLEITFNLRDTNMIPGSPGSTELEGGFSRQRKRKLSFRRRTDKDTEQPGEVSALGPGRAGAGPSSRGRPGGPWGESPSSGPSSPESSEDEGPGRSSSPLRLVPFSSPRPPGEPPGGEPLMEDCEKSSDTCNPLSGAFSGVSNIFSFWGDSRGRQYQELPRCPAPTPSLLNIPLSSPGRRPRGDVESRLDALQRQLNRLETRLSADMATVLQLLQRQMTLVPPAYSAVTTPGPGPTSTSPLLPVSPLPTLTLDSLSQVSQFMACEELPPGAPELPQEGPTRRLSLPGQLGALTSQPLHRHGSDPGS
Protein cereblon/Glycogen synthase kinase-3 beta, sequence (P49841 whole entry): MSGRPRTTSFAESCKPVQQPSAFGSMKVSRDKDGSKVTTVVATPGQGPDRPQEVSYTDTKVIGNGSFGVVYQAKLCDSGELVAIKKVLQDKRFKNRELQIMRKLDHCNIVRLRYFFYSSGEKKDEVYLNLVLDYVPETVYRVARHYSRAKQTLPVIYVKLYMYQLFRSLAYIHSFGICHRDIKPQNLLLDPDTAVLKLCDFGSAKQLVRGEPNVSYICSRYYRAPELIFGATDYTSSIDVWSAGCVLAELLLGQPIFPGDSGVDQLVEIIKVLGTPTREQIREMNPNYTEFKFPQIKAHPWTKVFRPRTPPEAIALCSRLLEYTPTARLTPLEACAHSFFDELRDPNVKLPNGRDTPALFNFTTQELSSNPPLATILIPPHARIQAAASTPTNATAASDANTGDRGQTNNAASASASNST
Protein cereblon/Glycogen synthase kinase-3 beta, sequence (Q96SW2 whole entry): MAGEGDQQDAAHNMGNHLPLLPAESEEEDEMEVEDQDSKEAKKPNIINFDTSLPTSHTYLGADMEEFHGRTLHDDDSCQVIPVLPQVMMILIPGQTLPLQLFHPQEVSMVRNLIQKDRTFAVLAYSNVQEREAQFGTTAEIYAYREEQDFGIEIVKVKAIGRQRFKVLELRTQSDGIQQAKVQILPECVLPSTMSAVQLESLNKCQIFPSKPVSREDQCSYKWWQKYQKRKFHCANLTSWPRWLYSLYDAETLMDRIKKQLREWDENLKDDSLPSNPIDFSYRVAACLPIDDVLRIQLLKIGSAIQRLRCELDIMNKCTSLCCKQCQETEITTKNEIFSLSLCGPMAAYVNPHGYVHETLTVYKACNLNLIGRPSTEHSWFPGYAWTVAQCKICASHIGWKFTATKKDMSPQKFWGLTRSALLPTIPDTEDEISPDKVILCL
Glycogen synthase kinase-3 alpha (Homo sapiens), sequence (P49840 2-483 limits assumed): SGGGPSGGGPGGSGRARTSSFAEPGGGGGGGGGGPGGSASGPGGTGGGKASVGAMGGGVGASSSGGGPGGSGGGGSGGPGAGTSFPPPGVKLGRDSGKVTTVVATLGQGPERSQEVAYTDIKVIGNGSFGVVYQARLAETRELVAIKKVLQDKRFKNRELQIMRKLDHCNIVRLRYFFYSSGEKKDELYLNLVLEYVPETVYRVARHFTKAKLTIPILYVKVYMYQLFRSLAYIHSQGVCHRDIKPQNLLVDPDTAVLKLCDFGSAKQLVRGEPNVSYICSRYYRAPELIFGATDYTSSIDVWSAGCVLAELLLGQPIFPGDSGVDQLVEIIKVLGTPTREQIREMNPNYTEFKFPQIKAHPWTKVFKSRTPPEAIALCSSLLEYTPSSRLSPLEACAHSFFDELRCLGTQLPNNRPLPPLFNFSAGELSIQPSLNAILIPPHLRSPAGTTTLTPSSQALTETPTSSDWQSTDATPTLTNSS
Protein cereblon/Glycogen synthase kinase-3 alpha, sequence (P49840 2-483 limits assumed): as above
Protein cereblon/Glycogen synthase kinase-3 alpha, sequence (Q96SW2 whole entry partner): as the sequence (Q96SW2 whole entry) above

Turning to `Nc1ncc(-c2ccc(S(=O)(=O)N3CCN(CCCCc4cn(CCOCCOCCOCCOCCOCCNc5cccc6c5C(=O)N(C5CCC(=O)NC5=O)C6=O)nn4)CC3)cc2)nc1C(=O)Nc1cccnc1` (stereo unspecified), the outcome (with SH-SY5Y [1]; in the data set with Rattus norvegicus [5]; in the data set on Rattus norvegicus [7]; in [10]; with Rattus norvegicus [13]) was Active. For the same compound, the Activity entry in the data set on SH-SY5Y [2] was “Dose-Dependent Effect”; with SH-SY5Y [4], 1%; in the data set on SH-SY5Y [6] it was 1.2%; in the data set with SH-SY5Y [8], “Dose-Dependent Effect”; in the data set on SH-SY5Y [9] it was 83%; with SH-SY5Y [15] it was 89.5%. Also, the 50% degradation concentration (DC50) in data set [3] came out at 0.0342 µM. In addition, at hERG (KCNH2), the inhibition at 40 µM amounted to 15.4%. Moreover, the result (in the data set with SH-SY5Y [11]; in data set [12]) was inactive. The “fold change (FC)” value in [14] is 0.35.

What is called DC50 is the concentration at which degradation of the target reaches its halfway point. The term inhibition denotes the percentage by which the read-out fell short of the control.
